Assay results taken from US6673938B1, “Substituted pyridine herbicides” (Syngenta Participations AG, priority 1998, dated 2004).
Where “and” joins values, the source holds several entries; their conditions need not be identical. Identical values can stand only once.

Assays:
[1] = system: Monocotyledonous and dicotyledonous test plants; experiment: Herbicidal action before emergence of the plants (pre-emergence action); format: in vivo; conditions: evaluated after 3 weeks, nine-step scale; for pre-emergence action, Cyperus / pre-emergence action, Ipomoea / pre-emergence action, Setaria / pre-emergence action, Sinapis / pre-emergence action, Solanum / pre-emergence action, Stellaria: 2000 g/ha; for Pre-emergence action, Abutilon / Pre-emergence action, Amaranthus / Pre-emergence action, Chenop. / Pre-emergence action, Digitaria / Pre-emergence action, Echino. / Pre-emergence action, Panicum: 250 g/ha
Procedure, shortened: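 Sprayed onto soil immediately after sowing as WP suspension or EC emulsion at 2 kg or 250 g a.i./ha (500 l water/ha). Greenhouse growth for 3 weeks, then scored on a nine-step scale (1 = complete damage, 9 = no effect).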

[2] = system: Monocotyledonous and dicotyledonous test plants; experiment: Post-emergence herbicidal action; format: in vivo; conditions: evaluated after approximately 18 days; for Post-emergence action, Ipomoea / Post-emergence action, Lolium / Post-emergence action, Setaria / Post-emergence action, Sinapis / Post-emergence action, Solanum / Post-emergence action, Stellaria: 2000 g/ha, sprayed in 4- to 6-leaf stage, nine-step scale; for Post-emergence action: Abutilon (score, nine-step scale) / Post-emergence action: Chenop. (score, nine-step scale) / Post-emergence action: Digitaria (score, nine-step scale) / Post-emergence action: Echino. (score, nine-step scale) / Post-emergence action: Ipopur. (score, nine-step scale) / Post-emergence action: Panicum (score, nine-step scale) / Post-emergence action: Xanth. (score, nine-step scale): 250 g/ha, sprayed at 4- to 6-leaf stage
Procedure, shortened: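 Greenhouse plants sprayed at the 4- to 6-leaf stage with test substance as wettable-powder suspension or emulsion-concentrate emulsion, 2 kg or 250 g a.i./ha in 500 l water/ha. Scored after about 18 days on a nine-step scale (1=complete damage, 9=no effect).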

Structure (SMILES) | pre-emergence action, Cyperus [1] | pre-emergence action, Ipomoea [1] | pre-emergence action, Setaria [1] | pre-emergence action, Sinapis [1] | pre-emergence action, Solanum [1] | pre-emergence action, Stellaria [1] | Post-emergence action, Ipomoea [2] | Post-emergence action, Lolium [2] | Post-emergence action, Setaria [2] | Post-emergence action, Sinapis [2] | Post-emergence action, Solanum [2] | Post-emergence action, Stellaria [2] | also measured
Cc1nc(C(F)(F)F)ccc1C(=O)C1=C(O)CCC2(CCC2)C1=O [Compound A2-C146] | 1 | 2 | 2 | 2 | 1 | 2 | 1 | 2 | 2 | 1 | 2 | 2 | –
Cc1nc(C(F)(F)F)ccc1C(=O)C1=C(O)C(C)(C)CC2(CCC2)C1=O [Compound A2-C147] | 2 | 4 | 2 | 2 | 2 | 2 | 1 | 2 | 2 | 1 | 2 | 2 | –
Cc1nc(C(F)(F)F)ccc1C(=O)C1=C(O)C(C)CC2(CCC2)C1=O (centres unmarked) [Compound A2-C152] | 1 | 1 | 2 | 2 | 1 | 2 | 2 | 2 | 3 | 1 | 2 | 2 | –
Cc1nc(C(F)(F)F)ccc1C(=O)C1=C(O)CC2CCCC2C1=O (centres unmarked) [Compound A2-D36] | 1 | 2 | 2 and 1 | 2 | – | 1 | 2 | 2 and 1 | 2 and 1 | 1 | 2 and 1 | 2 and 1 | –
Cc1nc(C(F)(F)F)ccc1C(=O)C1=C(O)C(C)(S(C)(=O)=O)C2CC2C1=O (centres unmarked) [Compound A2-D115] | 3 | 3 | 2 | 2 | 2 | 3 | 1 | 2 | 1 | 1 | 1 | 1 | –
CCc1nc(C(F)(F)F)ccc1C(=O)C1=C(O)CCCC1=O [Compound A3-B1] | 2 | 2 | 4 | 2 | 3 | 2 | 1 | 3 | 2 | 1 | 1 | 2 | –
CCc1nc(C(F)(F)F)ccc1C(=O)C1=C(O)C(C)(C)CCC1=O [Compound A3-B24] | 1 | 3 | 2 | 2 | 1 | 2 | 2 | 2 | 2 | 1 | 2 | 2 | –
COCc1nc(C(F)(F)F)ccc1C(=O)C1=C(O)CCCC1=O [Compound A8-B1] | – | – | – | – | – | – | – | – | – | – | – | – | Pre-emergence action, Abutilon [1]: 1; Pre-emergence action, Amaranthus [1]: 1; Pre-emergence action, Chenop. [1]: 1; Pre-emergence action, Digitaria [1]: 2; Pre-emergence action, Echino. [1]: 2; Pre-emergence action, Panicum [1]: 2; Post-emergence action: Abutilon (score, nine-step scale) [2]: 3; Post-emergence action: Chenop. (score, nine-step scale) [2]: 2; Post-emergence action: Digitaria (score, nine-step scale) [2]: 3; Post-emergence action: Echino. (score, nine-step scale) [2]: 3; Post-emergence action: Ipopur. (score, nine-step scale) [2]: 3; Post-emergence action: Panicum (score, nine-step scale) [2]: 4; Post-emergence action: Xanth. (score, nine-step scale) [2]: 3
COCc1nc(C(F)(F)F)ccc1C(=O)C1=C(O)C(C)CCC1=O (centres unmarked) [Compound A8-B2] | 1 | 3 | 2 | 2 | 1 | 2 | 2 | 2 | 2 | 2 | 2 | 3 | –
COCc1nc(C(F)(F)F)ccc1C(=O)C1=C(O)C(C)(C)CCC1=O [Compound A8-B24] | 1 | 2 | 2 | 2 | 1 | 3 | 2 | 2 | 2 | 1 | 2 | 2 | –
COCc1nc(C(F)(F)F)ccc1C(=O)C1=C(O)C(C)(C(=O)OC)CCC1=O (centres unmarked) [Compound A8-B34] | 2 | 3 | 2 | 2 | 2 | 2 | 2 | 2 | 2 | 2 | 2 | 2 | –
COCc1nc(C(F)(F)F)ccc1C(=O)C1=C(O)C(C)(C)C(C)CC1=O (centres unmarked) [Compound A8-B156] | – | – | – | – | – | – | – | – | – | – | – | – | Pre-emergence action, Abutilon [1]: 3; Pre-emergence action, Amaranthus [1]: 4; Pre-emergence action, Chenop. [1]: 2; Pre-emergence action, Digitaria [1]: 3; Pre-emergence action, Echino. [1]: 3; Pre-emergence action, Panicum [1]: 3; Post-emergence action: Abutilon (score, nine-step scale) [2]: 1; Post-emergence action: Chenop. (score, nine-step scale) [2]: 1; Post-emergence action: Digitaria (score, nine-step scale) [2]: 3; Post-emergence action: Echino. (score, nine-step scale) [2]: 3; Post-emergence action: Ipopur. (score, nine-step scale) [2]: 2; Post-emergence action: Panicum (score, nine-step scale) [2]: 2; Post-emergence action: Xanth. (score, nine-step scale) [2]: 2
COCc1nc(C(F)(F)F)ccc1C(=O)C1=C(O)C(C)(C)OCC1=O [Compound A8-B552] | – | – | – | – | – | – | – | – | – | – | – | – | Pre-emergence action, Abutilon [1]: 1; Pre-emergence action, Amaranthus [1]: 4; Pre-emergence action, Chenop. [1]: 1; Pre-emergence action, Digitaria [1]: 3; Pre-emergence action, Echino. [1]: 4; Pre-emergence action, Panicum [1]: 2; Post-emergence action: Abutilon (score, nine-step scale) [2]: 2; Post-emergence action: Chenop. (score, nine-step scale) [2]: 2; Post-emergence action: Digitaria (score, nine-step scale) [2]: 3; Post-emergence action: Echino. (score, nine-step scale) [2]: 3; Post-emergence action: Ipopur. (score, nine-step scale) [2]: 2; Post-emergence action: Panicum (score, nine-step scale) [2]: 2; Post-emergence action: Xanth. (score, nine-step scale) [2]: 2
COCc1nc(C(F)(F)F)ccc1C(=O)C1=C(O)CC(C(F)(F)F)CC1=O (centres unmarked) [Compound A8-B1064] | 2 | 4 | 3 | 2 | 1 | 3 | 2 | 4 | 2 | 1 | 1 | 2 | –
CCN(CC)CC.COCc1nc(C(F)(F)F)ccc1C(=O)C1=C(O)CC(C)CC1=O (centres unmarked) [Compound A8-B1101] | 2 | 4 | 2 | 2 | 1 | 1 | 2 | 3 | 2 | 1 | 2 | 2 | –
